From patent publication US20240285576A1, “R-MDMA FOR TREATMENT OF PAIN” (Mind Medicine, Inc., priority 2023, published 2024)

How the values were obtained:
[1] = tested on: healthy volunteer population; test: Subjective effects in humans (psychedelic experience questionnaires, 5D-ASC, VAS); assay type: in vivo
Experimental: Doses of any of the compounds herein can be 20-300 mg. […] Compounds can be administered a single dose or multiple doses, up to three times per day. […] The compounds can be administered before, during, or after the individual has the sensation of pain.

Mice = test: Acute pain: mouse tail flick; conditions: for MPE, tail flick: model of acute pain (FIG. 3)

CN[C@H](C)Cc1ccc2c(c1)OCO2 [R-MDMA]
subjective experience on standard psychedelic experience questionnaires ([1]; R-MDMA 75 mg, 125 mg, 175 mg or 225 mg, compared to racemic MDMA): differentiated subjective experience | measures of emotional breakthrough ([1]; R-MDMA 75 mg, 125 mg, 175 mg or 225 mg, healthy volunteer population): dose dependent changes | psychedelic-type effects (5D-ASC total OAV score) ([1]; R-MDMA 300 mg compared with S-MDMA (125 mg), expected): greater psychedelic-type effects | latency of the tail flick (Mice; R-MDMA 17 and 30 mg/kg PO, 30, 60 and 90 minutes after administration, comparable to morphine (FIG. 2)): statistically significant increase | MPE, tail flick (Mice; R-MDMA 17 and 30 mg/kg PO): 60% | % MPE (percent of maximal possible effect), tail flick (Mice; R-MDMA treated animals, 60 and 90 minutes post-treatment): significantly increased

CN[C@@H](C)Cc1ccc2c(c1)OCO2 [S-MDMA]
subjective stimulation (VAS) ([1]; 125 mg of S-MDMA vs 125 mg of R-MDMA, postulated): greater subjective stimulation

CN1CC[C@]23c4c5ccc(O)c4O[C@H]2[C@@H](O)C=C[C@H]3[C@H]1C5 [morphine, reference compound]
MPE, tail flick (Mice; morphine 4 mg/kg SC): 80%
